Among the data in US6908935B2, “Calcium receptor modulating agents” (Amgen Inc., priority 2002, dated 2005) are EC50 values, retold here.

Some results are limits rather than exact numbers.

In general, EC50 refers to the concentration giving half of the maximal effect. A low value points to higher potency in that assay.

The target of this experiment is T1, human parathyroid cell Ca^2+ receptor (hPCaR) (Homo sapiens, UniProt P41180).
T1 construct: expressed in transfected cells
T1 sequence (P41180 20-1078): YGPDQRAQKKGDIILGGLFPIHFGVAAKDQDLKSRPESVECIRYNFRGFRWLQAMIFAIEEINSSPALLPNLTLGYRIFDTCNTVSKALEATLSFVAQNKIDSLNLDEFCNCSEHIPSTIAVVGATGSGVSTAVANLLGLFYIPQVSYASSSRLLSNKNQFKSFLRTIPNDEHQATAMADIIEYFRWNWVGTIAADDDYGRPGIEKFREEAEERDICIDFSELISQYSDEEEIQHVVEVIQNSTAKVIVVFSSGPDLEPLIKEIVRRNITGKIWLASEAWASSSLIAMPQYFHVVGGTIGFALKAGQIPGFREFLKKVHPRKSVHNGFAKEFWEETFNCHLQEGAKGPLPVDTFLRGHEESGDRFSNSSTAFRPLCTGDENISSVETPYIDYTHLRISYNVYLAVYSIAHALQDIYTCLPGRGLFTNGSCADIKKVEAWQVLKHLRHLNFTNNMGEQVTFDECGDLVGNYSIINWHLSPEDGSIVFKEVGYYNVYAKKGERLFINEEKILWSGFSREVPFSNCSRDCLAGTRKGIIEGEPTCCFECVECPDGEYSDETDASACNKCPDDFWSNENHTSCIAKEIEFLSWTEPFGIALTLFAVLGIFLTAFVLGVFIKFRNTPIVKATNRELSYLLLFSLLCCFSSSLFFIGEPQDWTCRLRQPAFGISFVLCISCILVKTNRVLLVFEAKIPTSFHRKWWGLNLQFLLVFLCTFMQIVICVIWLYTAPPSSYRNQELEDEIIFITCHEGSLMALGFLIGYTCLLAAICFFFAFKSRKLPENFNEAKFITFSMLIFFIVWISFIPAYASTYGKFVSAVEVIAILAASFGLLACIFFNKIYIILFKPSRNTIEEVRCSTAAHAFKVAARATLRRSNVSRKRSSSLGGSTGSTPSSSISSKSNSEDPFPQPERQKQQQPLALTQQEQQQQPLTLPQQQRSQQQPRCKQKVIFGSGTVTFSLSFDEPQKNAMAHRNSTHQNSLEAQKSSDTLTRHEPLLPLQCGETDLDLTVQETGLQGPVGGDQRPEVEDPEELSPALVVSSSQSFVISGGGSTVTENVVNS
Description: [Ca2+]i measurement with fluo-3 in HEK 293 4.0-7 cells stably transfected with hPCaR. The conditions noted are these: fluo-3 fluorescence (485/530 nm), effect on [Ca^2+]i. The experiment is classed as cell-based. Summed up: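 HEK 293 cells stably expressing human parathyroid Ca2+ receptor (clone 4.0-7), loaded with 2 μM fluo-3 AM for 30 min at 37 °C in parathyroid cell buffer (pH 7.45) with 1 mM CaCl2 and 0.5% BSA. After compound addition, intracellular Ca2+ followed by fluorescence at 485 nm excitation/530 nm emission.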
With `COc1ccc(CN[C@H](C)c2ccccc2)cc1-n1cccc1` [(1R)-N-((4-(methyloxy)-3-(1H-pyrrol-1-yl)phenyl)methyl)-1-phenylethanamine], the concentration for a half-maximal effect (EC50) was ≤ 10 µM. In the case of `COc1ccc(CN[C@H](C)c2cccc3ccccc23)cc1-c1csc(N2CCCCC2)n1` [(1R)-N-((4-(methyloxy)-3-(2-(1-piperidinyl)-1,3-thiazol-4-yl)phenyl)methyl)-1-(1-naphthalenyl)ethanamine], the EC50 is ≤ 10 µM. With `COc1ccc(CN[C@H](C)c2ccccc2)cc1-c1csc(N2CCCCC2)n1` [(1R)-N-((4-(methyloxy)-3-(2-(1-piperidinyl)-1,3-thiazol-4-yl)phenyl)methyl)-1-phenylethanamine], the EC50 is ≤ 10 µM.

For the compound `COc1ccc(CN[C@H](C)c2ccccc2)cc1-c1cccnc1N1CCOCC1` [(1R)-N-((4-(methyloxy)-3-(2-(4-morpholinyl)-3-pyridinyl)phenyl)methyl)-1-phenylethanamine], the EC50 was ≤ 10 µM. As for `COc1ccc(CN[C@H](C)c2ccccc2)cc1-c1cccnc1OCC(F)(F)F` [(1R)-N-((4-(methyloxy)-3-(2-((2,2,2-trifluoroethyl)oxy)-3-pyridinyl)phenyl)methyl)-1-phenylethanamine], the EC50 was ≤ 10 µM. As for `COc1ccc(CN[C@H](C)c2cccc3ccccc23)cc1-c1cnc(OCC(F)(F)F)nc1` [(1R)-N-((4-(methyloxy)-3-(2-((2,2,2-trifluoroethyl)oxy)-5-pyrimidinyl)phenyl)methyl)-1-(1-naphthalenyl)ethanamine], the 50% effective concentration (EC50) is ≤ 10 µM. As to `COc1ccc(CN[C@H](C)c2ccccc2)cc1-c1cnc(OCC(F)(F)F)nc1` [(1R)-N-((4-(methyloxy)-3-(2-((2,2,2-trifluoroethyl)oxy)-5-pyrimidinyl)phenyl)methyl)-1-phenylethanamine], the EC50 is ≤ 10 µM.

On to `COc1ccc(CN[C@H](C)c2ccccc2)cc1-c1cccnc1OCC1CCCO1` (stereo partly drawn) [(1R)-N-((4-(methyloxy)-3-(2-((tetrahydro-2-furanylmethyl)oxy)-3-pyridinyl)phenyl)methyl)-1-phenylethanamine], for which the half-maximal effective concentration (EC50) was ≤ 10 µM. Consider `COc1ccc(CN[C@H](C)c2cccc3ccccc23)cc1-c1csc(C)n1` [(1R)-N-((4-(methyloxy)-3-(2-methyl-1,3-thiazol-4-yl)phenyl)methyl)-1-(1-naphthalenyl)ethanamine], for which the EC50 was ≤ 10 µM. For `COc1cccc([C@@H](C)NCc2ccc(OC)c(-c3csc(C)n3)c2)c1` [(1R)-N-((4-(methyloxy)-3-(2-methyl-1,3-thiazol-4-yl)phenyl)methyl)-1-(3-(methyloxy)phenyl)ethanamine], the EC50 is ≤ 10 µM. In the case of `COc1ccc(CN[C@H](C)c2ccccc2)cc1-c1csc(C)n1` [(1R)-N-((4-(methyloxy)-3-(2-methyl-1,3-thiazol-4-yl)phenyl)methyl)-1-phenylethanamine] it was ≤ 10 µM. On to `COc1ccc(CN[C@H](C)c2cccc3ccccc23)cc1-c1ccc2ccccc2c1` [(1R)-N-((4-(methyloxy)-3-(2-naphthalenyl)phenyl)methyl)-1-(1-naphthalenyl)ethanamine], for which the EC50 is ≤ 10 µM.

`COc1cccc([C@@H](C)NCc2ccc(OC)c(-c3ccc4ccccc4c3)c2)c1` [(1R)-N-((4-(methyloxy)-3-(2-naphthalenyl)phenyl)methyl)-1-(3-(methyloxy)phenyl)ethanamine]: the EC50 was ≤ 10 µM. In the case of `COc1ccc(CN[C@H](C)c2ccccc2)cc1-c1ccc2ccccc2c1` [(1R)-N-((4-(methyloxy)-3-(2-naphthalenyl)phenyl)methyl)-1-phenylethanamine], the EC50 is ≤ 10 µM.

Regarding `COc1ccc(CN[C@H](C)c2cccc3ccccc23)cc1-c1cnccn1` [(1R)-N-((4-(methyloxy)-3-(2-pyrazinyl)phenyl)methyl)-1-(1-naphthalenyl)ethanamine], the EC50 was ≤ 10 µM. Take `COc1ccc(CN[C@H](C)c2ccc3ccccc3c2)cc1-c1cnccn1` [(1R)-N-((4-(methyloxy)-3-(2-pyrazinyl)phenyl)methyl)-1-(2-naphthalenyl)ethanamine]: the EC50 was ≤ 10 µM. In the case of `COc1ccc(CN[C@H](C)c2ccc(C)cc2)cc1-c1cnccn1` [(1R)-N-((4-(methyloxy)-3-(2-pyrazinyl)phenyl)methyl)-1-(4-methylphenyl)ethanamine] it was ≤ 10 µM. Consider `COc1ccc(CN[C@H](C)c2cccc3ccccc23)cc1-c1ccccn1` [(1R)-N-((4-(methyloxy)-3-(2-pyridinyl)phenyl)methyl)-1-(1-naphthalenyl)ethanamine], for which the concentration giving a half-maximal response (EC50) is ≤ 10 µM.

In the case of `COc1ccc(CN[C@H](C)c2cccc3ccccc23)cc1-c1ncccn1` [(1R)-N-((4-(methyloxy)-3-(2-pyrimidinyl)phenyl)methyl)-1-(1-naphthalenyl)ethanamine], the concentration giving a half-maximal response (EC50) was ≤ 10 µM.

On to `COc1ccc(CN[C@H](C)c2ccccc2)cc1-c1ncccn1` [(1R)-N-((4-(methyloxy)-3-(2-pyrimidinyl)phenyl)methyl)-1-phenylethanamine], for which the EC50 was ≤ 10 µM. As to `COc1ccc(CN[C@H](C)c2cccc3ccccc23)cc1-c1cccs1` [(1R)-N-((4-(methyloxy)-3-(2-thienyl)phenyl)methyl)-1-(1-naphthalenyl)ethanamine], the EC50 is ≤ 10 µM. On to `COc1ccc(CN[C@H](C)c2ccccc2)cc1-c1cccs1` [(1R)-N-((4-(methyloxy)-3-(2-thienyl)phenyl)methyl)-1-phenylethanamine], for which the EC50 was ≤ 10 µM.

In the case of `COc1ccc(CN[C@H](C)c2cccc3ccccc23)cc1-c1cccnc1` [(1R)-N-((4-(methyloxy)-3-(3-pyridinyl)phenyl)methyl)-1-(1-naphthalenyl)ethanamine], the EC50 was ≤ 10 µM.

Consider `COc1ccc(CN[C@H](C)c2ccc(C)cc2)cc1-c1cccnc1` [(1R)-N-((4-(methyloxy)-3-(3-pyridinyl)phenyl)methyl)-1-(4-methylphenyl)ethanamine], for which the EC50 was ≤ 10 µM. With `COc1ccc(CN[C@H](C)c2cccc3ccccc23)cc1-c1ccsc1` [(1R)-N-((4-(methyloxy)-3-(3-thienyl)phenyl)methyl)-1-(1-naphthalenyl)ethanamine], the EC50 is ≤ 10 µM.

Consider `COc1ccc(CN[C@H](C)c2ccc3ccccc3c2)cc1-c1ccsc1` [(1R)-N-((4-(methyloxy)-3-(3-thienyl)phenyl)methyl)-1-(2-naphthalenyl)ethanamine], for which the EC50 was ≤ 10 µM. As for `COc1ccc(CN[C@H](C)c2ccc(C)cc2)cc1-c1ccsc1` [(1R)-N-((4-(methyloxy)-3-(3-thienyl)phenyl)methyl)-1-(4-methylphenyl)ethanamine], the figure is ≤ 10 µM; as for `COc1ccc(CN[C@H](C)c2ccccc2)cc1-c1ccsc1` [(1R)-N-((4-(methyloxy)-3-(3-thienyl)phenyl)methyl)-1-phenylethanamine], ≤ 10 µM; as for `COc1cccc([C@@H](C)NCc2ccc(OC)c(-c3cc(OC)ccn3)c2)c1` [(1R)-N-((4-(methyloxy)-3-(4-(methyloxy)-2-pyridinyl)phenyl)methyl)-1-(3-(methyloxy)phenyl)ethanamine], ≤ 10 µM. Take `COc1ccnc(-c2cc(CN[C@H](C)c3ccccc3)ccc2OC)c1` [(1R)-N-((4-(methyloxy)-3-(4-(methyloxy)-2-pyridinyl)phenyl)methyl)-1-phenylethanamine]: the EC50 is ≤ 10 µM. Take `COc1ccc(CN[C@H](C)c2cccc3ccccc23)cc1C1CCNCC1` [(1R)-N-((4-(methyloxy)-3-(4-piperidinyl)phenyl)methyl)-1-(1-naphthalenyl)ethanamine]: the EC50 was ≤ 10 µM. As for `COc1ccc(-c2cc(CN[C@H](C)c3cccc4ccccc34)ccc2OC)nc1` [(1R)-N-((4-(methyloxy)-3-(5-(methyloxy)-2-pyridinyl)phenyl)methyl)-1-(1-naphthalenyl)ethanamine], the EC50 is ≤ 10 µM. In the case of `COc1ccc(-c2cc(CN[C@H](C)c3cccc(OC)c3)ccc2OC)nc1` [(1R)-N-((4-(methyloxy)-3-(5-(methyloxy)-2-pyridinyl)phenyl)methyl)-1-(3-(methyloxy)phenyl)ethanamine] it was ≤ 10 µM. With `COc1ccc(-c2cc(CN[C@H](C)c3ccccc3)ccc2OC)nc1` [(1R)-N-((4-(methyloxy)-3-(5-(methyloxy)-2-pyridinyl)phenyl)methyl)-1-phenylethanamine], the EC50 was ≤ 10 µM.
